The test system of test [1] is Gβγ-dependent activity of G protein-coupled receptor kinase 2 (GRK-2). The test is described as follows: Rhodopsin phosphorylation assay (Gβγ-dependent GRK-2 activity). Format: biochemical, bovine. On the procedure: All substances derived from the virtual screen were tested for their ability to inhibit the Gβγ-dependent activity of G protein-coupled receptor kinase 2 (GRK-2) in a rhodopsin phosphorylation assay. Stock solutions of 10mM of all compounds were dissolved in DMSO, for all assays (in vitro and cellular) DMSO was added in the same amount to the respective control group. The initial compound screen was carried out in a 96 well plate formate. The assay mix contained 15µM ATP, 10mM MgCl2, 20nM Gβγ (from bovine brain), 60nM GRK-2(purified from baculoviral culture), ^32P-ATP (approximately 200.000 cpm/assay point) and 10µM of the respective compound in 50µl assay buffer (20mM Hepes pH 7.2, 2mM EDTA); 600nM rhodopsin (purified from bovine retina) was added in the dark. Stimulation was achieved by incubation for 10-15 min under yellow light. Subsequently, the mix was aspirated with a cell harvester and applied onto a glass-fiber membrane (GF/C); then, the assay plate was washed 10 times with 10ml assay buffer each. The membrane was counted in a Wallac counter (Cerenkov). Additionally, 45µl of the assay mix were counted to determine the total amount of radioactivity in the assay. […]
To test the ability of the compounds to inhibit Gβγ-dependent signalling a rhodopsin phosphorylation assay may be used. […] The effect of different compound concentrations may be determined in the same assay. […]

Test [2] has as its system isolated rabbit cardiomyocytes. As to the kind of experiment: Measurement of cell shortening of isolated cardiomyocytes. It is filed as cell-based. As to conditions: Figure 10; 10 µM COM1 for 10 minutes, then isoproterenol 1x10^-9 - 1x10^-7M; n = 8 cells per group. The procedure: Female New Zealand White rabbits (12 weeks old) were anesthesized with thiopental (75-1 00mg/kg) and 500 U heparin were injected intravenously. The thorax was opened and the heart was excised and put into ice-cold NaCl solution (0.9%). Fat and pericardium were removed. The aorta was attached to a perfusion system connected to a pump and the heart was retrogradely pefused at a flow rate of 20-40 ml/min with oxygenated (95% oxygen, 5% CO2) Powell medium (110mM NaCl, 2.5mM KCI, KH2PO4 1.2 mM, MgSO4 1.2 mM, NaHCO3 25 mM, Glucose 11 mM; pH 7.4) until all blood was washed out. […]
Cell shortening was measured with an electro-optical monitoring system connected to an online digitalized assessment of amplitude and velocity of shortening and relaxation (Scientific Instruments). […] Cell shortening was monitored using an edge detection camera and the data were transferred to a computer and fractional shortening was calculated for a single cell.
Overexpression of proteins which can bind Gβγ subunits, such as phosducin or the C-terminus of GRK-2, result in an increased contractility of cardiomyocytes. Therefore, the compounds' effects on this important parameter were determined. In isolated rabbit cardiomyocytes, basal, compound-incubated and isoproterenol- stimulated contractility were measured and expressed as fractional shortening of the single cell.

In test [3] the test system is native M1 receptor in HEK 293 cells. The test is described as follows: Calcium measurements (Fura-2) in HEK 293 cells after carbachol (Gq-coupled pathway). It is filed as cell-based. The following applies: Figure 8; 30 µM compound, 30 minutes pre-incubation; 100 µM carbachol.

Entries after “also recorded” stand apart in the source; their conditions may differ.

With `O=C(Nc1ccc(-c2ccc(NC(=O)c3ccc(F)cc3)c(C(=O)O)c2)cc1C(=O)O)c1ccc(F)cc1` [COM1, 4,4'-bis[(4-fluorobenzoyl)amino][1,1'-biphenyl]-3,3'-dicarboxylic acid], in test [1] (Figure 4, GRK-2 50 nM, COM1 30 µM, rhodopsin 10-3000 nM), the “Reversal of inhibition of Gβγ-dependent GRK-2 activity by increasing concentrations of the substrate rhodopsin” value is recorded as “can be reversed”. The “Isoproterenol-stimulated contractility (fractional shortening, contraction amplitude)” value in test [2] is given as “positive inotropic effect”.
Consider `O=C(Nc1ccccc1C(=O)O)c1ccc2c(c1)C(=O)N(c1ccc(Oc3ccc(N4C(=O)c5ccc(C(=O)Nc6ccccc6C(=O)O)cc5C4=O)cc3)cc1)C2=O` [COM2, 2-[({2-[4-(4-{5-[(2-carboxyanilino)carbonyl]-1,3-dioxo-1,3-dihydro-2H-isoindol-2-yl}phenoxy)phenyl]-1,3-dioxo-2,3-dihydro-1H-isoindol-5-yl}carbonyl)amino]benzoic acid], for which, in test [1] (Figure 3, COM2 3µM, GRK-2 50nM, rhodopsin 100nM, Gβγ 3 to 1000 nM, result at 1000 nM Gβγ), the “Effect of increasing concentrations of Gβγ on the inhibition of GRK-2-mediated phosphorylation of rhodopsin” value is reported as “completely blunted; also recorded: completely reversed”. The “Calcium release mediated via the Gq-coupled pathway” value in test [3] is “does not have an effect”.
As for `O=C(C=Cc1ccco1)Nc1ccc(-c2ccc(NC(=O)C=Cc3ccco3)c(C(=O)O)c2)cc1C(=O)O` [COM3, 4,4'-bis{[3-(2-furyl)acryloyl]amino}[1,1'-biphenyl]-3,3'-dicarboxylic acid], in test [3], the “Calcium release mediated via the Gq-coupled pathway” value was “displays an inhibitory potential”.
